The source of these data is PubChem BioAssay (NCI).

Among the test systems are KM20L2 colon; HOP-18 NSCLC; RXF-631 renal; DLD-1 colon; M19-MEL melanoma; DMS 273 small cell lung; MDA-N.
Holding throughout (experiment): DTP human tumour cell line panel, 48 h

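Method: 48-hour compound exposure of cells in 96-well plates, five concentrations, linear interpolation of endpoints. GI50 = concentration required for 50% inhibition of growth. TGI marks complete inhibition of growth.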

In the case of `COC(=O)c1oc([N+](=O)[O-])c(-c2ccccc2)c1-c1ccccc1`, the TGI in the experiment on KM20L2 colon, in the experiment on HOP-18 NSCLC, in the experiment on RXF-631 renal, in the experiment on DLD-1 colon, with M19-MEL melanoma and in the experiment with DMS 273 small cell lung was over 100 µM in each case.

Take `Cc1ccc(C)c(N2C(=O)C(=O)C(c3nc4ccccc4s3)C(=O)C2=O)c1`: the TGI in the experiment with KM20L2 colon, in the experiment with DLD-1 colon, in the experiment on M19-MEL melanoma and with DMS 273 small cell lung was over 100 µM throughout.

Regarding `OCC(O)COc1ccc(F)cc1` (stereo not drawn), the concentration for total growth inhibition (TGI) in the experiment on KM20L2 colon, in the experiment on HOP-18 NSCLC, with DLD-1 colon, in the experiment on M19-MEL melanoma and with DMS 273 small cell lung was over 100 µM in each case.

For `COc1ccc(C(=O)O[C@@H]2CCN3CC[C@H](C)[C@H]23)cc1`, the TGI (as a rule, the concentration at which net growth stops) in the experiment with MDA-N was over 100 µM.

With `C=CCC1=C2CCCCC2CCC1=O` (stereo not drawn), the TGI in the experiment on RXF-631 renal, in the experiment on DLD-1 colon, in the experiment on M19-MEL melanoma and in the experiment on DMS 273 small cell lung was over 100 µM each time.

Consider `COC(=O)CCC(=O)C(CC(=O)OC)C(=O)CCC(=O)NCCc1ccccc1` (stereo not drawn), for which the TGI with KM20L2 colon, in the experiment with HOP-18 NSCLC, in the experiment with RXF-631 renal and with DMS 273 small cell lung was over 100 µM in each case.

On to `CC1=CC=C2C(C)(C)CC[C@@H]3OC(=O)[C@H]1[C@]23C`, for which the total growth inhibition concentration (TGI) with KM20L2 colon, in the experiment on HOP-18 NSCLC, in the experiment with RXF-631 renal, with DLD-1 colon, in the experiment with M19-MEL melanoma and in the experiment with DMS 273 small cell lung was over 100 µM each time.

Regarding `CC[C@H]1[C@@H](C)C=C[C@@H](C)N1S(=O)(=O)c1ccc(C)cc1`, the TGI with KM20L2 colon was over 100 µM; in the experiment on RXF-631 renal, 30.4 µM; in the experiment on M19-MEL melanoma, over 100 µM; in the experiment on DMS 273 small cell lung, over 100 µM.

With `CCC(CO)COC(=O)/C=C/C(=O)OCC(CC)CO` (stereo not drawn), the TGI in the experiment with KM20L2 colon, with HOP-18 NSCLC, in the experiment with RXF-631 renal, with DLD-1 colon, in the experiment on M19-MEL melanoma and in the experiment on DMS 273 small cell lung was over 100 µM throughout.

Regarding `CC[C@@]1(O)C(=O)OCc2c1cc1n(c2=O)Cc2cc3c(OC)cccc3nc2-1`, the TGI with KM20L2 colon is over 23.6 µM; in the experiment with HOP-18 NSCLC, over 100 µM; with RXF-631 renal it was 1.45 µM; with DLD-1 colon it was 19.3 µM; with M19-MEL melanoma it was 0.643 µM; with MDA-N, over 100 µM. In the experiment with DMS 273 small cell lung, the concentration for total growth inhibition (TGI) was found to be 1.14 µM. Further, the GI50 – broadly, the concentration giving 50% growth inhibition – in the experiment with MDA-N was over 100 µM.

Turning to `Cc1cc2c(=O)cc(-c3ccc(O)cc3)oc2c(C(=O)O)c1C`, the total growth inhibition concentration (TGI) in the experiment on KM20L2 colon, in the experiment with HOP-18 NSCLC, with DLD-1 colon, in the experiment with M19-MEL melanoma and with DMS 273 small cell lung was over 100 µM throughout.

Regarding `CCOC(=O)c1sc(Nc2cc(Cl)ccc2Cl)nc1C`, the TGI with KM20L2 colon, in the experiment with HOP-18 NSCLC, in the experiment with RXF-631 renal, with DLD-1 colon and in the experiment with M19-MEL melanoma was over 100 µM each time.

In turn, `CCOC(=O)Nc1nc(-c2ccccc2)c(C)s1` registered a concentration for total growth inhibition (TGI) with MDA-N of over 100 µM.

`O=P1(O)c2ccccc2CSCc2ccccc21` showed a TGI in the experiment on MDA-N of over 100 µM.

As for `O=C(O)COc1ccc2c3c1C(=O)CCC3CO2` (stereo not drawn), the total growth inhibition concentration (TGI) with KM20L2 colon, in the experiment on HOP-18 NSCLC, in the experiment with DLD-1 colon, in the experiment on M19-MEL melanoma and in the experiment with DMS 273 small cell lung was over 100 µM in each case.

Turning to `CC(=O)OC1C(COC(N)=O)OC(n2c(-c3ccc(C)cc3)cc(-c3ccccc3)c(C#N)c2=O)C(OC(C)=O)C1OC(C)=O` (stereo not drawn), the TGI in the experiment on KM20L2 colon, in the experiment on HOP-18 NSCLC, in the experiment on RXF-631 renal, with DLD-1 colon, with M19-MEL melanoma and with DMS 273 small cell lung was over 100 µM each time.

In the experiment on MDA-N, `O=C(O)c1cc(C(=O)C(=O)c2cc(C(=O)O)c(O)c3ccccc23)c2ccccc2c1O` gave a concentration for total growth inhibition (TGI) of over 100 µM.

Turning to `CN1C(=O)CNS1(=O)=O`, the total growth inhibition concentration (TGI) in the experiment with RXF-631 renal, in the experiment with DLD-1 colon and in the experiment on DMS 273 small cell lung was over 100 µM throughout.

On to `COC1OC(CO)C(O)C(NC(=O)N(C)N=O)C1O` (stereo not drawn), for which the TGI in the experiment with KM20L2 colon, in the experiment on HOP-18 NSCLC, with DLD-1 colon, with M19-MEL melanoma and with DMS 273 small cell lung was over 100 µM throughout.

Regarding `CN1C[C@@H]2CC(=O)CC[C@@H]2C[C@H]1C#N`, the total growth inhibition concentration (TGI) with KM20L2 colon, with RXF-631 renal and with DLD-1 colon was over 100 µM each time.

Turning to `CSc1nc(SC)c2c(C)cn(Cc3ccccc3)c2n1`, the TGI with MDA-N was over 100 µM.

For `Cc1cc2c(=O)cc(-c3ccc(Cl)c(Cl)c3)oc2c(C(=O)O)c1C`, the TGI with KM20L2 colon, in the experiment with HOP-18 NSCLC, with DLD-1 colon and in the experiment on M19-MEL melanoma was over 100 µM each time.

Regarding `c1ccc2c(CNCCCN3CCN(CCCNCc4cccc5ccccc45)CC3)cccc2c1`, the total growth inhibition concentration (TGI) in the experiment on KM20L2 colon was 3.18 µM; in the experiment on HOP-18 NSCLC, 18.7 µM; in the experiment on RXF-631 renal it was 2.41 µM; in the experiment with DLD-1 colon, 3.69 µM; in the experiment on M19-MEL melanoma, 3.37 µM; with DMS 273 small cell lung, 3.43 µM.

For `N#CCC(=O)N/N=C(/C(=O)Nc1ccccc1)C1C(=O)N(c2ccccc2)N=C1N` (stereo not drawn), the TGI in the experiment with KM20L2 colon, in the experiment with HOP-18 NSCLC, in the experiment with RXF-631 renal, in the experiment on DLD-1 colon, with M19-MEL melanoma and with DMS 273 small cell lung was over 100 µM in each case.

On to `CN(CC(=O)O)S(=O)(=O)c1ccc(Cl)cc1`, for which the total growth inhibition concentration (TGI) with KM20L2 colon, with HOP-18 NSCLC, in the experiment on DLD-1 colon, in the experiment on M19-MEL melanoma and in the experiment with DMS 273 small cell lung was over 100 µM each time.

Regarding `CC(=O)Nc1ccc(S(=O)(=O)N/N=C/c2cc(I)cc([N+](=O)[O-])c2O)cc1`, the TGI with KM20L2 colon was over 100 µM; with HOP-18 NSCLC it was 96.5 µM; in the experiment with RXF-631 renal it was over 100 µM; in the experiment on DLD-1 colon it was over 100 µM; with M19-MEL melanoma, over 100 µM; in the experiment on DMS 273 small cell lung it was over 100 µM.

For `Cc1cc2c(=O)cc(-c3ccc(Cl)cc3Cl)oc2c(C(=O)O)c1C`, the concentration for total growth inhibition (TGI) in the experiment on KM20L2 colon, in the experiment on HOP-18 NSCLC and with DLD-1 colon was over 100 µM throughout.

`Cc1ccccc1C(C#N)/C(=N/NC(N)=S)C(=O)Nc1c(C)cccc1C` (stereo not drawn): the total growth inhibition concentration (TGI) in the experiment on KM20L2 colon, with HOP-18 NSCLC, in the experiment with RXF-631 renal, in the experiment on DLD-1 colon and in the experiment on M19-MEL melanoma was over 100 µM each time.

`C#CCOCCCC(=O)O` came in with a TGI with MDA-N of over 100 µM.

For the compound `Cc1ccc(S(=O)OC2c3ccccc3Cc3ccccc32)cc1` (stereo not drawn), the concentration for total growth inhibition (TGI) in the experiment on KM20L2 colon amounted to 47.2 µM; in the experiment on HOP-18 NSCLC, 59.4 µM; in the experiment with RXF-631 renal it was 40.2 µM; in the experiment on DLD-1 colon it was 58.5 µM; in the experiment with M19-MEL melanoma, 40.8 µM; with DMS 273 small cell lung, 33 µM.

Consider `S=c1sc2sc(=S)sc2s1`, for which the TGI was over 100 µM with KM20L2 colon; over 100 µM in the experiment on HOP-18 NSCLC; 39.1 µM with RXF-631 renal; over 100 µM in the experiment on DLD-1 colon; 75.6 µM in the experiment on M19-MEL melanoma; over 100 µM in the experiment with DMS 273 small cell lung.

In the experiment with MDA-N, `CCCC(c1cc(C(C)(C)C)c(O)cc1C)c1cc(C(C)(C)C)c(O)cc1C` returned a TGI of 3.91 µM.

Take `CCOc1ccc(N=C2NC(=O)C(CC(=O)Nc3ccc(Cl)cc3Cl)S2)cc1` (stereo not drawn): the TGI with KM20L2 colon, in the experiment with RXF-631 renal, with DLD-1 colon, with M19-MEL melanoma and with DMS 273 small cell lung was over 100 µM in each case.

Regarding `CNC(=O)N(CCCC(NC(C)=O)C(=O)NCc1ccccc1)Cc1ccccc1` (stereo not drawn), the TGI in the experiment on KM20L2 colon, in the experiment on DLD-1 colon, in the experiment with M19-MEL melanoma and in the experiment with DMS 273 small cell lung was over 100 µM in each case.

Take `OC1CCC(COC(c2ccccc2)(c2ccccc2)c2ccccc2)O1` (stereo not drawn): the TGI with MDA-N is 34.5 µM. This counts as double-digit micromolar.

For `Cc1ccc(NC(=O)CC2SC(=Nc3cccc(Cl)c3C)NC2=O)cc1` (stereo not drawn), the total growth inhibition concentration (TGI) in the experiment with KM20L2 colon, with RXF-631 renal, with DLD-1 colon, in the experiment on M19-MEL melanoma and in the experiment on DMS 273 small cell lung was over 100 µM in each case.

As to `Cc1cc2c(=O)cc(-c3ccc(C(=O)O)cc3)oc2c(C(N)=O)c1C`, the TGI in the experiment on KM20L2 colon, in the experiment with RXF-631 renal, in the experiment on DLD-1 colon, with M19-MEL melanoma and in the experiment on DMS 273 small cell lung was over 100 µM throughout.
